Assay results: US5648386A (priority 1990, dated 1997)
“Also recorded” adds a separate entry of the source.

Columns and labels:
lambs = assay: performance enhancing effect in lambs (feed, 6 weeks); type: in vivo, Suffolk×Galway wether lambs; conditions: for Weight of carcass / Final weight / Composition of carcass tissue (without bones): Protein / Feed utilization in g of weight gain per kg of feed / Composition of carcass tissue (without bones): Fat / Weight gain in g per day / Composition of carcass tissue (without bones): Water: 2 mg/kg in feed, 6 weeks; for Starting weight: baseline, control 34.4
Description: 2. […] At the same time steps were taken to ensure that the lambs were offered at least 10% excess feed during the experimental period. The lambs were then killed and the following parameters were obtained: […]

animals = conditions: U.S. Pat. No. 4,407,819; cited from earlier work
[1] = system: β-receptors of the skeletal musculature; assay: β-mimetic effect on skeletal musculature (BOWMAN and NOTT): tension of incompletely tetanically contracting M. soleus of anaesthetized cats i.v.; type: in vivo; conditions: for Reduction in tension in % (x): anaesthetized cats, M. soleus, n=5
Description: (§1) 1. […] They were also compared for their acute toxicity.
The β-mimetic effect on the skeletal musculature was tested using the method of BOWMAN and NOTT (Pharmacol. Rev. 21, 27 (1969)). This investigates the influence on the tension of the incompletely tetanically contracting M. soleus of anaesthetized cats after i.v. administration.

mice = assay: acute toxicity in male and female mice i.v.; type: in vivo
Description: as §1
(§2) The acute toxicity was measured in male and female mice weighing between 20 and 25 g after intravenous administration. An LD50 was calculated by […] from the percentage of animals which died within 14 days of being given the substance.

fat cells = assay: β-mimetic effect on fat cells: lipolytic effect (free fatty acids in blood) in conscious rabbits i.v.; type: in vivo; conditions: for ED150 (dose which resulted in a 50% increase in the free fatty acid in the blood): conscious rabbits, linear regression, range in parentheses
Description: as §1
The β-mimetic effect on the fat cells was investigated in terms of a lipolytic effect on conscious rabbits after i.v. administration.

[2] = overall comparison of the enantiomers (biological effects, use to risk); type: in vivo; conditions: (-)- vs (+)-cimaterol, words
[3] = acute toxicity in male and female mice i.v.; type: in vivo; conditions: mouse, in vivo, iv, male and female mice, death within 14 days, range in parentheses
Description: as §1, §2

| SMILES | Starting weight (lambs) [kg] | Reduction in tension in % (x) ([1]; dose 0.5 μg/kg) [%] | Weight of carcass (lambs; control 22.8, 2 mg/kg) [kg] | Final weight (lambs; control 45.4, 2 mg/kg) [kg] | Composition of carcass tissue (without bones): Protein (lambs; control 140, 2 mg/kg) [g per kg] | Feed utilization in g of weight gain per kg of feed (lambs; control 190, 2 mg/kg) | Composition of carcass tissue (without bones): Fat (lambs; control 248, 2 mg/kg) [g per kg] | Weight gain in g per day (lambs; control 259, 2 mg/kg) [g per day] | Composition of carcass tissue (without bones): Water (lambs; control 501, 2 mg/kg) [g per kg] | ED150 (dose which resulted in a 50% increase in the free fatty acid in the blood) (fat cells) | other results |
| --- | --- | --- | --- | --- | --- | --- | --- | --- | --- | --- | --- |
| CC(C)NCC(O)c1ccc(N)c(C#N)c1 (racemic) [Cimaterol, 1-(4'-amino-3'-cyano-phenyl)-2-isopropylaminoethanol, reference compound] | 34.9 | 38.3 |  |  |  |  |  |  |  |  | Weight of carcass (lambs; control 22.8): 24.0 kg; Final weight (lambs; control 45.4): 46.0 kg; Composition of carcass tissue (without bones): Protein (lambs; control 140): 167 g per kg; Feed utilization in g of weight gain per kg of feed (lambs; control 190): 196 g of weight gain per kg of fee; Composition of carcass tissue (without bones): Fat (lambs; control 248): 265 g per kg; Weight gain in g per day (lambs; control 259): 275 g per day; Composition of carcass tissue (without bones): Water (lambs; control 501): 556 g per kg; performance-enhancing effect (animals): performance-enhancing effect |
| CC(C)NCC(O)c1ccc(N)c(C#N)c1 (single isomer, unassigned; (+)) [(+)-Cimaterol, (+)-1-(4'-Amino-3'-cyano-phenyl)-2-isopropylamino-ethanol] | 34.8 |  | 22.5 | 45.7 | 151 | 184 g of weight gain per kg of fee | 341 | 268 | 501 | 9.770 (7.440-12.700) μg/kg | LD50 (mice; male and female mice, death within 14 days, range in parentheses, 20160 min): 86.3 (80.6-92.3) mg/kg; toxicity of the D-enantiomer compared with the L-enantiomer (mice; mice, words): the same toxicity as the L-enantiomer; doses needed to achieve a 50% increase in the free fatty acids, times greater than those of the corresponding L-enantiomer (fat cells; D- vs L-enantiomer, rabbits): about 100 times; Reduction in tension in % (x) ([1]; dose 50.0 μg/kg): 33.7% |
| CC(C)NCC(O)c1ccc(N)c(C#N)c1 (single isomer, unassigned; (-)) [(-)-Cimaterol, (-)-1-(4'-Amino-3'-cyano-phenyl)-2-isopropylamino-ethanol] | 34.2 | 42.1 | 24.1 | 48.0 | 177 | 220 g of weight gain per kg of fee | 252 | 324 | 557 | 0.098 (0.078-0.118) μg/kg | carrier of the biological / desired effects of cimaterol [2]: the only carrier of the biological effects of cimaterol; also recorded: the sole carrier of the desired effects; LD50 at 336 h [3]: 74.8 mg/kg; times more effective than the corresponding D-enantiomer on the β-receptors of the skeletal musculature ([1]; L- vs D-enantiomer, cats): more than 100 times |
